Experimental data as given in patent US20120151612A1, “NON-SURGICAL APPROACH TO PREVENT AND CORRECT CRANIOFACIAL MALFORMATIONS DURING DEVELOPMENT” (UNIVERSITY OF SOUTHERN CALIFORNIA, priority 2010, published 2012).
“Also recorded” adds a separate entry of the source.

Experiments:
p38 MAPK [1] = test: Immunoblot of p38 MAPK and 14-3-3ζ/δ phosphorylation in primary MEPM cells; assay type: cell-based, mice; conditions: Tgfbr2^fl/fl; Wnt1-Cre MEPM cells, 10 μM for 24 hours
Procedure: (§1) Primary MEPM cells. Primary MEPM cells were obtained from E13.5 embryos. Briefly, palatal shelves were dissected at E13.5, and trypsinized for 30 minutes at 37° C. in a CO2 incubator. After pipetting thoroughly, cells were cultured in Dulbecco's modified Eagle's medium containing 10% fetal bovine serum supplemented with penicillin, streptomycin, L-glutamate, sodium pyruvate, and nonessential amino acids.

[2] = test system: Tgfbr2^fl/fl; Wnt1-Cre MEPM cells; test: Lipid droplet accumulation (Oil Red O staining) in primary MEPM cells; assay type: cell-based, mice
Procedure: Histological examination. Cryosections were stained with Oil Red O to detect lipid production. Prepared sections were washed three times in phosphate buffer saline (PBS) (each wash 5 min) and fixed in 4% formaldehyde in 0.1 M phosphate buffer for 1 h at room temperature. Sections were then incubated for 15 min in 60% isopropanol and stained for 15 min with a filtered solution of three parts of Oil Red O (saturated in isopropanol) and two parts of ddH2O. For the next step, slides were briefly rinsed in 60% isopropanol and washed thoroughly in ddH2O. Cells were counterstained in Mayers Hematoxylin Solution.
as §1

[3] = test system: Tgfbr2^fl/fl; Wnt1-Cre palate; test: Palatal shelf organ culture, BrdU-labeled nuclei (Example 2); assay type: cell-based, mice; conditions: ex vivo organ culture, 100 μM, 24 hours
Procedure: (§2) Histological examination. Hematoxylin and eosin staining and BrdU staining were performed as described previously. Immunohistochernical staining was performed as described previously. Antibodies used for immunohistochemistry were anti-β-spectrin rabbit polyclonal, and anti-Tgf-βRIII mouse monoclonal antibodies (Santa Cruz Biotechnology), anti-Tgf-β2 mouse monoclonal, and anti-14-3-3ζ/δ rabbit polyclonal antibodies (Abeam). Fluorescence images were obtained using a fluorescence microscope (Model IX71, Olympus).
Palatal shelf organ culture. Time-pregnant mice were sacrificed at E13.5. Genotyping was carried out as described above. The palatal shelves were microdissected and cultures in serum-less chemically defined medium as previously described. After 24 hours in culture treated with p38 MAPK inhibitor SB203580 (100 μM), and neutralizing antibody for Tgf-β2 (2 μg/ml) or Tgf-βRIII (2 μg/ml), palates were harvested, fixed in 4% paraformaldehyde/0.1 M phosphate buffer (pH 7.4) and processed.

MEPM cells = test: Pulse-chase analysis of lipid droplet formation; assay type: cell-based, mice
Procedure: Pulse-chase analysis of lipid droplet formation. Chemical inducers, oleic acid for lipogenesis and isoproterenol for lipolysis, were added into culture medium to analyze lipid droplet formation. The number of lipid droplets per cell was counted. Oleic acid was added to the medium at 100 μM for 0, 60, and 120 min, and then washed out and changed to the medium with 100 μM isoproterenol for 10 and 30 min. Twenty cells were counted at each time point.

[4] = test system: angiotensin-mediated Tgf-β signaling; conditions: patients of Marfan syndrome; cited from earlier work
p38 MAPK [5] = test: Immunoblotting of p38 MAPK activity in mice after telmisartan treatment; assay type: in vivo; conditions: Tgfbr2^fl/fl; Wnt1-Cre mice after telmisartan treatment
Procedure: Animals. To generate Tgfbr2^fl/fl; Wnt1-Cre mice, we mated Tgfbr2^fl/+; Wnt1-Cre with Tgfbr2^fl/fl mice. To generate Tgfbr2^fl/fl; Wnt1-Cre; Tgfb2^+/- mice, we mated Tgfbr2^fl/+; Wnt1-Cre; Tgfb2^+/- with Tgfbr2^fl/fl mice. To generate Tgfbr2^fl/fl; Wnt1-Cre; Alk5^fl/+ mice, we mated Tgfbr2^fl/+; Wnt1-Cre; Alk5^fl/fl with Tgfbr2^fl/fl; Alk5^fl/fl mice. Genotyping was performed using PCR primers as described previously^28, 29. Female Tgfbr2^fl/fl mice, which underwent timed matings with Tgfbr2^fl/+; Wnt1-Cre male mice, were treated with oral telmisartan (0.5 mg in 25 μl dimethyl sulfoxide per day by a feeding tube) or vehicle (25 μ[…] sulfoxide by a feeding tube) from 0.5 day post-coitum (E0.5). Therapy was continued throughout pregnancy. Immunological analysis. Immunoblots were performed as described previously. Antibodies used for immunoblotting were as follows: rabbit polyclonal antibodies against p38, JNK, and phospho-JNK (Cell Signaling Technology), 14-3-3ζ/δ, Smad2/3, […] (Abeam), phospho-14-3-3 (ABR), 14-3-3ε, and β-spectrin (Santa Cruz Biotechnology); rabbit monoclonal antibodies against phospho-p38, and phospho-Smad2 (Cell Signaling Technology); and mouse monoclonal antibodies against Smad4, and Tgf-βrIII (Santa Cruz Biotechnology), Tgf-β2 (Abeam), and GAPDH (Chemicon). MEPM cells were treated with or without p38 MAPK inhibitor SB203580 at 10 μM for 24 hours.

[6] = test system: Tgfbr2^fl/fl; Wnt1-Cre mice; test: Rescue of cleft palate in Tgfbr2^fl/fl; Wnt1-Cre embryos after feeding telmisartan to pregnant females; assay type: in vivo; conditions: for cleft palate (in words): Tgfbr2 mutant mice, treatment of pregnant mice
Procedure: (§3) Animals. To generate Tgfbr2^fl/fl; Wnt1-Cre mice, we mated Tgfbr2^fl/+; Wnt1-Cre with Tgfbr2^fl/fl mice. To generate Tgfbr2^fl/fl; Wnt1-Cre; Tgfb2^+/− mice, we mated Tgfbr2^fl/+; Wnt1-Cre; Tgfb2^+/− with Tgfbr2^fl/fl mice. To generate Tgfbr2^fl/fl; Wnt1-Cre; Alk5^fl/+ mice, we mated Tgfbr2^fl/+; Wnt1-Cre; Alk5^fl/fl with Tgfbr2^fl/fl; Alk5^fl/fl mice. Genotyping was performed using PCR primers as described previously^28, 29. Female Tgfbr2^fl/fl mice, which underwent timed matings with Tgfbr2^fl/+; Wnt1-Cre male mice, were treated with oral telmisartan (0.5 mg in 25 μl dimethyl sulfoxide per day by a feeding tube) or vehicle (25 μl dimethl sulfoxide by a feeding tube) from 0.5 day post-coitum (E0.5). Therapy was continued throughout pregnancy.

[7] = test system: Tgfbr2^fl/fl; Wnt1-Cre mice; test: Triacylglycerol level in mice after telmisartan treatment; assay type: in vivo; conditions: E18.5
Procedure: as §3
Triacylglycerol amount. Triacylglycerol amounts were measured by an enzymatic method using N-ethyl-N-(2-hydroxy-3-sulfopropyl)-3,5-dimethoxyaniline sodium salt according to the manufacturer's instructions (Wako). Data is expressed as mg per 100 mg protein.

[8] = test system: Tgfbr2^fl/fl and Tgfbr2^fl/fl; Wnt1-Cre embryos; test: Histological analyses of embryo organs (heart, kidney, liver) after feeding telmisartan to pregnant females; assay type: in vivo, mice
Procedure: as §3
as §2, with “Immunohistochemical” for “Immunohistochernical”, “anti-Tgf-βrIII” for “anti-Tgf-βRIII”, “anti-14-3-3” for “anti-14-3-3ζ/δ”

Fgf7 expression = test: In situ hybridization of Fgf7 in treated palatal explants; assay type: cell-based, mice; conditions: Shh beads vs BSA beads
Procedure: (§4) Palatal shelf organ cultures and bead implantation. Timed-pregnant mice were sacrificed on postcoital day 13.5 (E13.5). Genotyping was carried out as previously described (Depew et al., 1999; Satokata and Maas, 1994). Paired secondary palatal shelves were microdissected and cultured in serumless, chemically-defined medium as previously described (Ito et al., 2003). For bead implantation, Affi-Gel blue agarose beads (BioRad) were soaked in proteins as previously described (Zhang et al., 2002). Tissues were harvested after 24 hours of culture and fixed in 4% paraformaldehyde for processing. Shh N-terminal peptide (R & D 7 systems) was used at 1 mg/ml, anti-Shh antibody (Developmental Studies Hybridoma Bank) was used at 0.30 mg/ml, and BSA was used at 10 ng/ml. Neutralizing antibodies to Fgf7 (MAB251) and Mouse IgG1 (MAB002) (R & D Systems) were added to the culture medium at concentrations of 50 μg/ml.
(§5) In situ hybridization. Samples for whole-mount and section in situ hybridization were fixed in freshly made 4% paraformaldehyde/PBS. In situ hybridizations were performed as previously described (Xu et al., 2005). The following cDNAs were used to generate antisense riboprobes: a 1.2 kb fragment of mouse Msx1, a 900 bp mouse Dlx5, a 1.6 kb mouse Gli1, and 640 bp mouse Shh. […]

[9] = test system: palatal mesenchyme of E13.5 palatal explants; test: Palatal shelf organ culture with bead implantation or antibody, BrdU cell proliferation and fusion (Example 1); assay type: cell-based, mice
Procedure: as §4, with “Tissues were harvested after 24 hours of culture and fixed in 4% paraformaldehyde for processing.” left out
(§6) Apoptosis and cell proliferation. Following treatment with […] proteinase K for 15 minutes at room temperature, apoptotic cells were assayed by the TUNEL procedure using the In Situ Cell Death Detection (fluorescein) kit (Roche Molecular Biochemicals) by following the manufacturer's protocol. Cell proliferation was scored by injection of BrdU (5-bromo-2′-deoxy-uridine, Sigma. 100 μg/g body weight) into pregnant females 1 hour before recovery of embryos. For palatal organ culture, BrdU was supplemented into culture medium at concentration of 100 μM for 2 hours before harvest. […]

[10] = test system: MEE of E13.5 wild type palatal shelves; test: TUNEL apoptosis assay in palatal explants; assay type: cell-based, mice; conditions: Shh beads vs BSA beads
Procedure: as §4
as §6, with “embryos.” for “embryos. For palatal organ culture, BrdU was supplemented into culture medium at concentration of 100 μM for 2 hours before harvest.”

[11] = test system: Shh expression in the palatal epithelium; test: In situ hybridization of Shh in treated palatal explants; assay type: cell-based, mice; conditions: Fgf7 beads
Procedure: as §4, §5

Molecule: C[S+]([O-])c1ccc(-c2nc(-c3ccc(F)cc3)c(-c3ccncc3)[nH]2)cc1 (centres unmarked) [SB203580, 4-[4-(4-fluorophenyl)-2-(4-methylsulfinylphenyl)-1H-imidazol-5-yl]pyridine]
- phosphorylation of 14-3-3ζ/δ (p38 MAPK [1]): inhibited
- phosphorylation of p38 (Mapk14) (p38 MAPK [1]): inhibited
- lipid droplet accumulation [2]: failed to detect lipid droplet accumulation; also recorded: Lipid droplets did not accumulate
- cell proliferation defect (BrdU-labeled nuclei) [3]: rescued cell proliferation

Molecule: CC(C)NCC(O)c1ccc(O)c(O)c1 (centres unmarked) [isoproterenol]
- number of lipid droplets (MEPM cells; Tgfbr2^fl/fl MEPM cells, after switch to 100 μM isoproterenol): decreased immediately
- lipid droplet number (MEPM cells; Tgfbr2^fl/fl, Wnt1-Cre MEPM cells, after switch to 100 μM isoproterenol): remained high

Molecule: CCCCc1nc(Cl)c(CO)n1Cc1ccc(-c2ccccc2-c2nn[nH]n2)cc1 [losartan]
- enlarged aorta [4]: prevents the enlarged aorta

Molecule: CCCCCCCC/C=C\CCCCCCCC(=O)O [oleic acid]
- number of lipid droplets (MEPM cells; MEPM cells of both Tgfbr2^fl/fl and Tgfbr2^fl/fl, Wnt1-Cre mice, oleic acid 100 μM): increased

Molecule: CCCc1nc2c(C)cc(-c3nc4ccccc4n3C)cc2n1Cc1ccc(-c2ccccc2C(=O)O)cc1 [telmisartan, 2-(4-{[4-methyl-6-(1-methyl-1H-1,3-benzodiazol-2-yl)-2-propyl-1H-1,3-benzodiazol-1-yl]methyl}phenyl)benzoic acid]
- up-regulated p38 MAPK activity (p38 MAPK [5]): restored to normal
- cell proliferation defect ([6]; Tgfbr2^fl/fl, Wnt1-Cre mice following telmisartan treatment): restored cell proliferation defect
- cleft palate (in words) [6]: prevents the cleft palate
- cleft palate (in words) ([6]; listed as Telmisartan): rescue cleft palate defects
- cleft palate rescued, number of Tgfbr2^fl/fl; Wnt1-Cre mice ([6]; oral telmisartan 0.5 mg per day to pregnant females from E0.5): 5/18
- increased triacylglycerol level [7]: restored to normal
- effect on kidney or liver histology ([8]; Tgfbr2^fl/fl and Tgfbr2^fl/fl, Wnt1-Cre embryos): does not appear to affect kidney or liver
- heart defect ([8]; Tgfbr2^fl/fl, Wnt1-Cre mice after telmisartan): does not rescue the heart defect
- side-effects in other organs ([8]; embryos after telmisartan to pregnant females): without obvious side-effects in other organs

Molecule: Shh: Shh N-terminal peptide (R & D systems) used at 1 mg/ml, soaked into Affi-Gel blue agarose beads
- Fgf7 expression (Fgf7 expression): repressed
- palatal mesenchyme cell proliferation (BrdU) ([9]; E13.5 wild type palatal explants, Shh beads vs BSA beads): enhanced
- palatal fusion of explants ([9]; Shh beads, two days of culture): able to fuse
- apoptosis in the MEE (TUNEL) [10]: did not affect apoptosis

B1: Fgf7: Fgf7 protein on beads placed into E13.5 palatal shelves in vitro (protein)
chain: CNDMSPEQTATSVNCSSPERHTRSYDYMEGGDIRVRRLFCRTQWYLRIDKRGKVKGTQEMKNSYNIMEIRTVAVGIVAIKGVESEYYLAMNKEGKLYAKKECNEDCNFKELILENHYNTYASAKWTHSGGEMFVALNQKGIPVKGKKTKKEQKTAHFLPMAIT
- Shh expression in the palatal epithelium ([11]; Dlx5−/− samples): inhibit Shh expression
- Shh expression in the palatal epithelium ([11]; E13.5 palatal shelves, one day of culture, compared to BSA): dramatic reduction
